Results reported in patent publication US20210070748A1, “INHIBITORS OF BRUTONS TYROSINE KINASE” (Pharmacyclics LLC, priority 2015, published 2021).
Like-named read-outs stand apart in the source and are kept apart here.

What was measured:
Type in all cases: biochemical
[1] = target: T1, JAK3 (Homo sapiens, UniProt P52333); test: Inhibition of a panel of kinases, in vitro HotSpot kinase assay: JAK3; settings: read-out: IC50 JAK3
T1 sequence (P52333 1-1124): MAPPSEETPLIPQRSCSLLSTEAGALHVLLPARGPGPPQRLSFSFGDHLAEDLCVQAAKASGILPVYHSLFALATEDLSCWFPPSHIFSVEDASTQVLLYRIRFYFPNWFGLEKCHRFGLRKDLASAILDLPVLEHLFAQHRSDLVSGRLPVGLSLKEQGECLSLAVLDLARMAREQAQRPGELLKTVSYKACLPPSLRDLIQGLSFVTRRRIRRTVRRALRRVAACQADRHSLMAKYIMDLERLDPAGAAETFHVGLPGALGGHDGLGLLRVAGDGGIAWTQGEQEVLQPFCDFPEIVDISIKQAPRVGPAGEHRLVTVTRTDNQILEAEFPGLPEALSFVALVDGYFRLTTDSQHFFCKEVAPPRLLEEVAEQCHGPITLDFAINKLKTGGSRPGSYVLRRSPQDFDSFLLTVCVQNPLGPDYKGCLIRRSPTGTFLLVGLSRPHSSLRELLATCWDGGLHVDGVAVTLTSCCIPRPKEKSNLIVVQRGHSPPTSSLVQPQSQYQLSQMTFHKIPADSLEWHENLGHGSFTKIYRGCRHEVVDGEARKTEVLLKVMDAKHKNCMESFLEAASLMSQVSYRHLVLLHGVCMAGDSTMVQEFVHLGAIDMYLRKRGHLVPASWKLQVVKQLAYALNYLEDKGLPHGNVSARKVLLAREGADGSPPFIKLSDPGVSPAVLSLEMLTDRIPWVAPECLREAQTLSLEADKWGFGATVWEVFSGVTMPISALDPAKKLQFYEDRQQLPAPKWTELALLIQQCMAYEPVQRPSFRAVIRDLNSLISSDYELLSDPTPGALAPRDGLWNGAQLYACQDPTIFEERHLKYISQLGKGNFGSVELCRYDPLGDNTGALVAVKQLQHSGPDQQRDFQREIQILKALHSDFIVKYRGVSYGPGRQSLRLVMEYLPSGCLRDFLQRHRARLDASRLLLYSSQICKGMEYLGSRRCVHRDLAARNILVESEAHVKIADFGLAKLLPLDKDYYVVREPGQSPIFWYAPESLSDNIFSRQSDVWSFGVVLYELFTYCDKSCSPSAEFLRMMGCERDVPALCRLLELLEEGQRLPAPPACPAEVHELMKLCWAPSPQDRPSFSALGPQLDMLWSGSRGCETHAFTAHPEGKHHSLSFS

[2] = target: LCK (Homo sapiens, UniProt P06239); test: Inhibition of a panel of kinases, in vitro HotSpot kinase assay: LCK; settings: read-out: IC50 LCK
LCK, sequence (P06239 whole entry): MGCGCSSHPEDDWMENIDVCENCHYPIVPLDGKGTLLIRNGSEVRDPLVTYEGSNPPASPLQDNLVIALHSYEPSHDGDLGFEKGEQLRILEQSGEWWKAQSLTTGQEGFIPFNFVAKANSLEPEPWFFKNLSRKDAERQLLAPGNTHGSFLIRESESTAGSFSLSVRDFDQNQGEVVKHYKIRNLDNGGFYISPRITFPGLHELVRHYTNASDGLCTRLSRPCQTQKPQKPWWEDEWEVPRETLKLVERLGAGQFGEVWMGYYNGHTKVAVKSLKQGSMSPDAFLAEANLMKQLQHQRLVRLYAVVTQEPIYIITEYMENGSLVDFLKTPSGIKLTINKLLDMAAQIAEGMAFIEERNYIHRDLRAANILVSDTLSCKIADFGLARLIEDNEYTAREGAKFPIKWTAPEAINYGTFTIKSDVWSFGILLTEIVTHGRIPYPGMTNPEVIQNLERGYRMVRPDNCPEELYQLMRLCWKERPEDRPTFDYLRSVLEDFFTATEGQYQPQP

[3] = target: T2, TEC (Homo sapiens, UniProt P42680); test: Inhibition of a panel of kinases, in vitro HotSpot kinase assay: TEC
T2 sequence (P42680 1-631): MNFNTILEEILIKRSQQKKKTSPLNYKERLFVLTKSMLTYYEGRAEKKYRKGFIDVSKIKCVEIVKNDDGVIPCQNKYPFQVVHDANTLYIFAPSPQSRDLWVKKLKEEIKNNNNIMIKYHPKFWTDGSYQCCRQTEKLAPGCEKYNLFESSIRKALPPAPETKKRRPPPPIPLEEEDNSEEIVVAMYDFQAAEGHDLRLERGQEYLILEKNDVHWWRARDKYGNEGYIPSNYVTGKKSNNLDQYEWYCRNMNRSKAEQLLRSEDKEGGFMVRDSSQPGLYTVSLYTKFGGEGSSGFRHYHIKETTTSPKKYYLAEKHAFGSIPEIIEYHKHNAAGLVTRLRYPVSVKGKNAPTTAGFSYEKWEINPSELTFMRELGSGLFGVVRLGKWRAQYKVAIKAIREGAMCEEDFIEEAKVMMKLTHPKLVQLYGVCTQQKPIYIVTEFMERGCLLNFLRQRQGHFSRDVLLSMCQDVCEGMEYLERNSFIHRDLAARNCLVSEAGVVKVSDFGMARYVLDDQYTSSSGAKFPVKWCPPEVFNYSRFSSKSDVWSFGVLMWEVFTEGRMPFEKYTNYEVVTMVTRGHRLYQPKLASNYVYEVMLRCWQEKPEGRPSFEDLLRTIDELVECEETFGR
Protocol: (§1) The degree of inhibition of a panel of kinases is determined using the in vitro HotSpot kinase assay (purified enzymes, ^33P-ATP, an appropriate substrate and 1 μM ATP).

[4] = target: SRC (Homo sapiens, UniProt P12931); test: Inhibition of a panel of kinases, in vitro HotSpot kinase assay: SRC
SRC, sequence (P12931 whole entry): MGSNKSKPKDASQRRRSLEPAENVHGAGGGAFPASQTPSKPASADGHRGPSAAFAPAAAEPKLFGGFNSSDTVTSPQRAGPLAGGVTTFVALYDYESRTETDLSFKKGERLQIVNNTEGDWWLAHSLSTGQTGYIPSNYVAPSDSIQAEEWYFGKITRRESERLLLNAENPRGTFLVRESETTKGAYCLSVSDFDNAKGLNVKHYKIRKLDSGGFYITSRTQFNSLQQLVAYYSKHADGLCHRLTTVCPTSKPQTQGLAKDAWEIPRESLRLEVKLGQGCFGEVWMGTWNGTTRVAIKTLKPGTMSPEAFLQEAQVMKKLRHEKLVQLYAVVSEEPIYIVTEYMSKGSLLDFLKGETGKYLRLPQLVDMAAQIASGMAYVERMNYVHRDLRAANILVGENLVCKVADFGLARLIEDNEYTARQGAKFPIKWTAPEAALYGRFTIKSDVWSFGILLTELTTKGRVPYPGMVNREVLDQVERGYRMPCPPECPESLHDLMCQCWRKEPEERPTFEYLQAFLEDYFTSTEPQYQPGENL
Protocol: as §1

[5] = target: T3, ITK (Homo sapiens, UniProt Q08881); test: Inhibition of a panel of kinases, in vitro HotSpot kinase assay: ITK
T3 sequence (Q08881 1-620): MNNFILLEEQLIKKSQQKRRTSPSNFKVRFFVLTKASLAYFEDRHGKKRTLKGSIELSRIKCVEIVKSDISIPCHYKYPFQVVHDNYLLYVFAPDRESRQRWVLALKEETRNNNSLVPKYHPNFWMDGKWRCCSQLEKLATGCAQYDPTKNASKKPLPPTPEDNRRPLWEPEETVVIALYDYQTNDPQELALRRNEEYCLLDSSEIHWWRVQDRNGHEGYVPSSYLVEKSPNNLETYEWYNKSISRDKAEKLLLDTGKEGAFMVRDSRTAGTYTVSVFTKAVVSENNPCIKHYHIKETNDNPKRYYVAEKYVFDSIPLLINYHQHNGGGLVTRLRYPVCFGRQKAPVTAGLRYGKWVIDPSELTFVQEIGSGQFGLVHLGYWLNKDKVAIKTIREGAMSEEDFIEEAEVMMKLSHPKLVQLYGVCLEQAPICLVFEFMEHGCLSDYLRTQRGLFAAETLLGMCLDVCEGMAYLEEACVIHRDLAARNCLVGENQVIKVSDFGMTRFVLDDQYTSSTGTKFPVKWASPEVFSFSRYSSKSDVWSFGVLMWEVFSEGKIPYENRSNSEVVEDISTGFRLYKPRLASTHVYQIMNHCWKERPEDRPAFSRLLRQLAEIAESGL
Protocol: as §1

[6] = target: EGFR (Homo sapiens, UniProt P00533); test: Inhibition of a panel of kinases, in vitro HotSpot kinase assay: EGFR
EGFR, sequence (P00533 25-1210): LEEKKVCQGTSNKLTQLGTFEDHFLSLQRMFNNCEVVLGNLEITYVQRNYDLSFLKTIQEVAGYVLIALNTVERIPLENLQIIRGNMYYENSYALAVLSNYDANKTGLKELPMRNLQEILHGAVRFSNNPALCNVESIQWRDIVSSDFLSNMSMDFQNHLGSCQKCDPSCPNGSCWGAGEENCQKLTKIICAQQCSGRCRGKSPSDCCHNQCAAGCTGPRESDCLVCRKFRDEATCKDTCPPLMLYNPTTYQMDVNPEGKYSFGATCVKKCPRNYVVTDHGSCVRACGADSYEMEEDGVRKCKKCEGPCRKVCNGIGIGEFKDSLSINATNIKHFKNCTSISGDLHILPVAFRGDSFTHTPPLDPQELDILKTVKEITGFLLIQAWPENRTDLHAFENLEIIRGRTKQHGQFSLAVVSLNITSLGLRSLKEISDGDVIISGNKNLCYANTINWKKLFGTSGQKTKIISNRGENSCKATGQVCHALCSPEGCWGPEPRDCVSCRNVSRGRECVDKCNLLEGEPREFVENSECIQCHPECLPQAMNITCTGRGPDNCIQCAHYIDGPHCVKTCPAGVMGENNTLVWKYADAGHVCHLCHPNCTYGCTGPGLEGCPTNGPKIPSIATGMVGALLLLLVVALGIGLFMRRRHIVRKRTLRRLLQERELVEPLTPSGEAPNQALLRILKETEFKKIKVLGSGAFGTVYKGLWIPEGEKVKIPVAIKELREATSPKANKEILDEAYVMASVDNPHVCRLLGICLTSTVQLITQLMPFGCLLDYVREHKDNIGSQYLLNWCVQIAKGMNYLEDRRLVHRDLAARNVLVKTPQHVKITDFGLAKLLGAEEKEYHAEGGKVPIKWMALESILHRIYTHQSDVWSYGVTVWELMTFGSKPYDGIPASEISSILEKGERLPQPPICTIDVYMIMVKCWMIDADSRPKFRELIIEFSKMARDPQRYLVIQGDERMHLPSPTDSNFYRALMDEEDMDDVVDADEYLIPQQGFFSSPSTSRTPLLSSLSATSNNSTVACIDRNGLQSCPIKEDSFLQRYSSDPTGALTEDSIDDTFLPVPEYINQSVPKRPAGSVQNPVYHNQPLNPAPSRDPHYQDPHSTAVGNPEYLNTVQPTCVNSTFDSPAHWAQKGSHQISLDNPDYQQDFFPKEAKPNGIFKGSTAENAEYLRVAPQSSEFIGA
Protocol: as §1

[7] = Table 13, A compounds, 1 μM ATP

Row | Compound | IC50 ([1]; E compounds, Table 17) | IC50 ([2]; E compounds, Table 17) | IC50 ([3]; E compounds, Table 17) | IC50 ([4]; E compounds, Table 17) | IC50 ([5]; E compounds, Table 17) | IC50 ([6]; E compounds, Table 17) | IC50 [1, 7] | IC50 [2, 7] | IC50 [3, 7] | IC50 [4, 7] | IC50 [5, 7] | IC50 [6, 7]
1 | C=CC(=O)N1CCC[C@@H](N(C)c2cnc(C(N)=O)c(Nc3ccc(C4(C)CCN(C5CCCC5)CC4)cc3)n2)C1 [Example E-103, (R)-5-((1-acryloylpiperidin-3-yl)(methyl)amino)-3-(4-(1-cyclopentyl-4-methylpiperidin-4-yl)phenylamino)pyrazine-2-carboxamide] | < 10 nM | < 10 nM | ≤ 10 nM | ≤ 10 nM | ≤ 10 nM | ≤ 10 nM |  |  |  |  |  | 
2 | C[C@@H]1[C@H](NC(=O)c2ccc(C3CC3)cc2Cl)CCCN1c1cnc(C(N)=O)c(Nc2ccc(N3CCN(C)CC3)cc2)n1 [Example A-180, 5-[(2R,3R)-3-(2-chloro-4-cyclopropylbenzamido)-2-methylpiperidin-1-yl]-3-{[4-(4-methylpiperazin-1-yl)phenyl]amino}pyrazine-2-carboxamide] |  |  |  |  |  |  | 1000 to 10000 nM | 10 to 100 nM | 10 to 100 nM | 100 to 1000 nM | 100 to 1000 nM | 100 to 1000 nM
3 | CN1CCC(n2cc(Nc3nc(N4CCC[C@@H](n5ccc6cc(C7CC7)ccc6c5=O)C4)cnc3C(N)=O)cn2)CC1 [Example A-178, 5-[(3R)-3-(6-cyclopropyl-1-oxo-1,2-dihydroisoquinolin-2-yl)piperidin-1-yl]-3-{[1-(1-methylpiperidin-4-yl)-1H-pyrazol-4-yl]amino}pyrazine-2-carboxamide] |  |  |  |  |  |  | 1000 to 10000 nM | 100 to 1000 nM | 10 to 100 nM | 100 to 1000 nM | 100 to 1000 nM | 1000 to 10000 nM
4 | CN1CCN(Cc2ccc(Nc3nc(N4CCC[C@@H](n5ccc6cc(C7CC7)ccc6c5=O)C4)cnc3C(N)=O)cc2)CC1 [Example A-111, 5-[(3R)-3-(6-cyclopropyl-1-oxo-1,2-dihydroisoquinolin-2-yl)piperidin-1-yl]-3-({4-[(4-methylpiperazin-1-yl)meth-yl]phenyl}amino)pyrazine-2-carboxamide] |  |  |  |  |  |  | 100 to 1000 nM | 100 to 1000 nM | 10 to 100 nM | 100 to 1000 nM | 100 to 1000 nM | 1000 to 10000 nM
5 | C[C@@H]1[C@H](NC(=O)c2ccc(C3CC3)cc2)CCCN1c1cnc(C(N)=O)c(Nc2cc(CN3CCCCC3)ns2)n1 [Example A-181, 5-[(2R,3R)-3-(4-cyclopropylbenzamido)-2-methylpiperidin-1-yl]-3-{[3-(piperidin-1-ylmethyl)-1,2-thiazol-5-yl]amino}pyrazine-2-carboxamide] |  |  |  |  |  |  | 100 to 1000 nM | 10 to 100 nM | 10 to 100 nM | 10 to 100 nM | 10 to 100 nM | 1000 to 10000 nM

Second part, the compound after the results:

Row | IC50 ([1]; E compounds, Table 17) | IC50 ([2]; E compounds, Table 17) | IC50 ([3]; E compounds, Table 17) | IC50 ([4]; E compounds, Table 17) | IC50 ([5]; E compounds, Table 17) | IC50 ([6]; E compounds, Table 17) | IC50 [1, 7] | IC50 [2, 7] | IC50 [3, 7] | IC50 [4, 7] | IC50 [5, 7] | IC50 [6, 7] | Compound
6 | < 10 nM | 10 to 100 nM | ≤ 10 nM | 10 to 100 nM | ≤ 10 nM | ≤ 10 nM |  |  |  |  |  |  | C=CC(=O)N1CCC[C@@H](Nc2nnc(C(N)=O)c(Nc3cc(C)ns3)n2)C1 [Example E-11, (R)-3-(1-acryloylpiperidin-3-ylamino)-5-(3-methylisothiazol-5-ylamino)-1,2,4-triazine-6-carboxamide]
7 | < 10 nM | 100 to 1000 nM | ≤ 10 nM | ≤ 10 nM | 10 to 100 nM | 10 to 100 nM |  |  |  |  |  |  | C=CC(=O)N[C@@H]1CCCN(c2cnc(C(N)=O)c(Nc3cc(C)ns3)n2)[C@@H]1C [Example E-97, 5-((2R,3R)-3-acrylamido-2-methylpiperidin-1-yl)-3-(3-methylisothiazol-5-ylamino)pyrazine-2-carboxamide]
8 | 1000 to 10000 nM | 10 to 100 nM | ≤ 10 nM | 10 to 100 nM | 10 to 100 nM | 1000 to 10000 nM |  |  |  |  |  |  | C[C@@H]1[C@H](NC(=O)c2ccc(C3CC3)cc2)CCCN1c1cnc(C(N)=O)c(Nc2ccc(N3CCN(C4COC4)C[C@@H]3C)cc2)n1 [Example E-142, 5-((2R,3R)-3-(4-cyclopropylbenzamido)-2-methylpiperidin-1-yl)-3-((4-((S)-2-methyl-4-(oxetan-3-yl)piperazin-1-yl)phenyl)amino)pyrazine-2-carboxamide]
9 | 1000 to 10000 nM | 10 to 100 nM | ≤ 10 nM | 10 to 100 nM | 100 to 1000 nM | 1000 to 10000 nM |  |  |  |  |  |  | C[C@@H]1[C@H](NC(=O)c2ccc3c(c2)C(C)(C)OC3)CCCN1c1cnc(C(N)=O)c(Nc2cnn(C)c2)n1 [Example E-153, 5-((2R,3R)-3-(3,3-dimethyl-1,3-dihydroisobenzofuran-5-carboxamido)-2-methylpiperidin-1-yl)-3-((1-methyl-1H-pyrazol-4-yl)amino)pyrazine-2-carboxamide]
10 | 100 to 1000 nM | 10 to 100 nM | ≤ 10 nM | 10 to 100 nM | 10 to 100 nM | 100 to 1000 nM |  |  |  |  |  |  | C[C@@H]1[C@H](NC(=O)c2ccc(C3CC3)cc2)CCCN1c1cnc(C(N)=O)c(Nc2ccc(N3CCN(C)C[C@@H]3C)cc2)n1 [Example E-148, 5-((2R,3R)-3-(4-cyclopropylbenzamido)-2-methylpiperidin-1-yl)-3-((4-((S)-2,4-dimethylpiperazin-1-yl)phenyl)amino)pyrazine-2-carboxamide]
11 | 1000 to 10000 nM | 100 to 1000 nM | 100 to 1000 nM | 100 to 1000 nM | 1000 to 10000 nM | 100 to 1000 nM |  |  |  |  |  |  | Cn1cc(Nc2nc(N3CCC4CCN(C(=O)c5ccc(C6CC6)cc5)C4C3)cnc2C(N)=O)cn1 (stereo not drawn) [Example E-141, 5-(1-(4-cyclopropylbenzoyl)octahydro-6H-pyrrolo[2,3-c]pyridin-6-yl)-3-((1-methyl-3H-pyrazol-4-yl)amino)pyrazine-2-carboxamide]
12 | 100 to 1000 nM | 100 to 1000 nM | ≤ 10 nM | 10 to 100 nM | 100 to 1000 nM | 100 to 1000 nM |  |  |  |  |  |  | C[C@@H]1[C@H](NC(=O)c2ccc(C(=O)N(C)C)cc2)CCCN1c1cnc(C(N)=O)c(Nc2cnn(C)c2)n1 [Example E-138, N1-((2R,3R)-1-(5-carbamoyl-6-((1-methyl-1H-pyrazol-4-yl)amino)pyrazin-2-yl)-2-methylpiperidin-3-yl)-N4,N4-dimethylterephthalamide]
